{"source": "paper PMC6688182", "about": "(Peptides, 2017)", "key": {"[1]": {"test_system": "anti-nociceptive actions of Ang-(1–7)", "settings": "ref [13]; cited from earlier work"}, "[2]": {"test_system": "Ang-(1–7)-dependent vasorelaxation of the isolated renal artery", "assay": "Effect of K+ channel blockers on Ang-", "design": "species or system male Wistar rat", "settings": "glibenclamide 10^−5 M; PE 3 × 10^−7 M; mean ± SEM, N = 8; * P < 0.05 vs. control"}, "blood pressure": {"test_system": "blood pressure", "settings": "ref [1],[16],[17]; cited from earlier work"}, "[3]": {"test_system": "Ang-(1–7)-dependent vasorelaxation of the isolated renal artery", "assay": "Effect of NOS, soluble guanylate cyclase and cyclooxygenase inhibitors on Ang-", "design": "species or system male Wistar rat", "settings": "for Effect of signaling inhibitor on Ang-(1–7)-induced vasorelaxation (in words) / Maximal vasorelaxation response to Ang-(1–7) in presence of L-NAME: L-NAME 10^−4 M; for Effect of signaling inhibitor on Ang-(1–7)-induced vasorelaxation (in words): indomethacin 10^−6 M; for Maximal vasorelaxation response to Ang-(1–7) in presence of L-NAME: N = 6"}, "mesenteric vessels": {"test_system": "mesenteric vessels", "settings": "rat mesentery; ref [20]; cited from earlier work"}, "afferent arterioles": {"test_system": "afferent arterioles", "settings": "ref [24]; cited from earlier work"}, "bovine endothelial cells": {"test_system": "bovine endothelial cells", "settings": "cited from earlier work; for Effect on NO stimulation by Ang-(1–7) or AVE0991: bovine endothelial cells, ref [14],[37]"}, "SHR and WKY rats": {"test_system": "SHR and WKY rats", "settings": "SHR and WKY rats following AT1 receptor blockade; ref [36]; cited from earlier work"}, "[4]": {"test_system": "Ang-(1–7)-dependent vasorelaxation of the isolated renal artery", "assay": "Effect of angiotensin receptor antagonists on Ang-", "design": "species or system male Wistar rat", "settings": "for Effect of receptor antagonist on Ang-(1–7)-induced vasorelaxation (in words): DALA, DPRO, Sarthran 10^−5 M, losartan, PD123319 10^−6 M, 20 min"}, "aortic segments": {"test_system": "aortic segments", "settings": "ref [28]; cited from earlier work"}, "mesenteric artery": {"test_system": "mesenteric artery", "settings": "ref [21]; cited from earlier work"}, "older WKY rats": {"test_system": "older WKY rats", "settings": "20 months, ref [5]; cited from earlier work"}, "[5]": {"test_system": "Mas-related receptor MrgD", "settings": "aortic rings; ref [19]; cited from earlier work"}, "AT2 receptor": {"target": "T1, AT2 receptor (Rattus norvegicus, UniProt P35351)", "T1 sequence (P35351 1-363)": "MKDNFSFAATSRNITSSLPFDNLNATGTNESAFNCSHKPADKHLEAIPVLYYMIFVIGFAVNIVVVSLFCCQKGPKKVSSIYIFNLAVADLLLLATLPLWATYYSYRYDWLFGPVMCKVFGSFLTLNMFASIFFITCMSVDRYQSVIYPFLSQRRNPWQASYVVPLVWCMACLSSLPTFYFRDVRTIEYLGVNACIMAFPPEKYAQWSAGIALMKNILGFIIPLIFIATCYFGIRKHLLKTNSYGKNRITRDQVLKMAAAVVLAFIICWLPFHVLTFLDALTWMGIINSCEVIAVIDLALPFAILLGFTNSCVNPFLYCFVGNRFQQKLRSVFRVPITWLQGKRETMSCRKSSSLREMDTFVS", "assay": "Competition of 125I-Sarthran binding in AR42J pancreatic cell membranes", "settings": "0.2 nM 125I-Sarthran, antagonists up to 10^−5 M, n = 3"}, "[6]": {"test_system": "Ang-(1–7)-dependent vasorelaxation of the isolated renal artery", "assay": "Effect of bradykinin B2 receptor antagonist on Ang-", "design": "species or system male Wistar rat"}, "AT2 and AT1 sites": {"test_system": "AT2 and AT1 sites", "settings": "ref [4],[30],[31],[35]; cited from earlier work"}, "[7]": {"test_system": "blood flow in multiple vascular beds", "settings": "kidney, mesentery and skin; ref [27]; cited from earlier work"}}, "note": "Where “and” joins values, the source holds several entries; their conditions need not be identical. Equal values may be shown once. Entries after “also recorded” stand apart in the source; their conditions may differ."}
{"molecule": "COc1ccc(Cl)cc1C(=O)NCCc1ccc(S(=O)(=O)NC(=O)NC2CCCCC2)cc1", "note": "[Glibenclamide]", "values": [{"measurement": "Effect on anti-nociceptive actions of Ang-(1–7)", "setting": "[1]", "result": "abolished the anti-nociceptive actions of Ang-(1–7)"}, {"measurement": "Maximal vasorelaxation response to Ang-(1–7) in presence of glibenclamide", "setting": "[2]", "result": "22.3 ± 2.3 ^* %"}]}
{"molecule": "COc1ccc2c(c1)c(CC(=O)O)c(C)n2C(=O)c1ccc(Cl)cc1", "note": "[Indomethacin]", "values": [{"measurement": "Effect on blood pressure-lowering effects of Ang-(1–7)", "setting": "blood pressure", "result": "attenuated the blood pressure-lowering effects of the peptide"}, {"measurement": "Effect of signaling inhibitor on Ang-(1–7)-induced vasorelaxation (in words)", "setting": "[3]; ODQ 10^−5 M", "result": "failed to block the Ang-(1–7) response"}, {"measurement": "Effect on Ang-(1–7)-dependent dilation of mesenteric vessels", "setting": "mesenteric vessels", "result": "inhibition of the Ang-(1–7) vasorelaxant effects"}]}
{"molecule": "CCc1nc2c(C)cc(C)nc2n1Cc1ccc(-c2ccccc2-c2nn[nH]n2)cc1", "note": "[L158809]", "values": [{"measurement": "Effect on Ang-(1–7)-induced vasodilation of renal afferent arterioles", "setting": "afferent arterioles", "result": "not reversed"}]}
{"molecule": "COC(=O)[C@@H](N)CCCNC(N)=N[N+](=O)[O-]", "note": "[L-NAME, nitro-l-arginine methyl ester]", "values": [{"measurement": "Effect on NO stimulation by Ang-(1–7) or AVE0991", "setting": "bovine endothelial cells", "result": "blocked"}, {"measurement": "Maximal vasorelaxation response to Ang-(1–7) in presence of L-NAME", "setting": "[3]; Ang-(1–7) 10^−12 to 10^−6 M, PE 3 × 10^−7 M, mean ± SEM, * P < 0.05 vs. control", "result": "13.4 ± 2.0 ^* %"}, {"measurement": "Maximal vasorelaxation response to Ang-(1–7) in presence of L-NAME", "setting": "[3]; Ang-(1–7) 10^−12 to 10^−6 M, PE 3 × 10^−7 M, mean ± SEM, * P < 0.05 vs. control, listed as LNAME", "result": "13 ± 2", "unit": "%"}, {"measurement": "Effect of signaling inhibitor on Ang-(1–7)-induced vasorelaxation (in words)", "setting": "[3]; ODQ 10^−5 M", "result": "attenuated the Ang-(1–7) response"}, {"measurement": "Effect on Ang-(1–7)-dependent dilation of mesenteric vessels", "setting": "mesenteric vessels", "result": "inhibition of the Ang-(1–7) vasorelaxant effects"}, {"measurement": "Effect on depressor effects of Ang-(1–7)", "setting": "SHR and WKY rats", "result": "sensitive"}]}
{"molecule": "CCCCc1nc(Cl)c(CO)n1Cc1ccc(-c2ccccc2-c2nn[nH]n2)cc1", "note": "[Losartan]", "values": [{"measurement": "Maximal vasorelaxation response to Ang-(1–7) in presence of antagonist", "setting": "[4]", "result": "22 ± 6", "unit": "%"}, {"measurement": "Effect of receptor antagonist on Ang-(1–7)-induced vasorelaxation (in words)", "setting": "[4]", "result": "significantly attenuated"}, {"measurement": "Effect on Ang-(1–7)-dependent relaxation of aortic segments", "setting": "aortic segments", "result": "no inhibitory effect"}, {"measurement": "Effect on vasorelaxation of the mesenteric artery by Ang-(1–7)", "setting": "mesenteric artery", "result": "blocked"}]}
{"molecule": "O=c1onc2cnc3ccccc3n12", "note": "[ODQ, 1H-[1,2,4] oxadiazolo-quinoxalin]", "values": [{"measurement": "Maximal vasorelaxation response to Ang-(1–7) in presence of ODQ", "setting": "[3]; ODQ 10^−5 M, Ang-(1–7) 10^−12 to 10^−6 M, PE 3 × 10^−7 M, mean ± SEM, N = 8, * P < 0.05 vs. control", "result": "10 ± 2% and 10.0 ± 2.1 ^* %"}]}
{"molecule": "Cc1cc(Cn2cnc3c2C[C@@H](C(=O)O)N(C(=O)C(c2ccccc2)c2ccccc2)C3)ccc1N(C)C", "note": "[PD123319]", "values": [{"measurement": "Effect on NO stimulation by Ang-(1–7) or AVE0991", "setting": "bovine endothelial cells", "result": "blocked"}, {"measurement": "Effect on depressor actions of Ang-(1–7)", "setting": "older WKY rats", "result": "blocked the depressor actions of Ang-(1–7)"}, {"measurement": "Effect of receptor antagonist on Ang-(1–7)-induced vasorelaxation (in words)", "setting": "[4]", "result": "significantly attenuated"}, {"measurement": "Effect on depressor effects of Ang-(1–7)", "setting": "SHR and WKY rats", "result": "abolished"}, {"measurement": "Effect on Ang-(1–7)-dependent relaxation of aortic segments", "setting": "aortic segments", "result": "no inhibitory effect"}, {"measurement": "Effect on the effects of [Ala^1]-Ang-(1–7)", "setting": "[5]", "result": "abolished the effects of [Ala^1]-Ang-(1–7)"}, {"measurement": "Effect on vasorelaxation of the mesenteric artery by Ang-(1–7)", "setting": "mesenteric artery", "result": "but not the AT2 antagonist PD123319"}, {"measurement": "Effect on Ang-(1–7)-induced vasodilation of renal afferent arterioles", "setting": "afferent arterioles", "result": "not reversed"}, {"measurement": "Competition of 125I-Sarthran binding (in words)", "setting": "AT2 receptor", "result": "essentially abolished binding"}]}
{"molecule": "CCOc1nc2cccc(C(=O)O)c2n1Cc1ccc(-c2ccccc2-c2nnn[nH]2)cc1", "note": "[candesartan]", "values": [{"measurement": "Effect on Ang-(1–7)-dependent NO release", "setting": "bovine endothelial cells; ref [14]", "result": "attenuated Ang-(1–7)-dependent NO release"}, {"measurement": "Effect on vasorelaxation of the mesenteric artery by Ang-(1–7)", "setting": "mesenteric artery", "result": "blocked"}]}
{"molecule": "HOE140", "values": [{"measurement": "Effect on NO stimulation by Ang-(1–7) or AVE0991", "setting": "bovine endothelial cells", "result": "blocked"}, {"measurement": "Effect of B2 antagonist on Ang-(1–7)-induced vasorelaxation (in words)", "setting": "[6]; HOE140 5 × 10^−8 M, alone or with L-NAME 10^−4 M", "result": "markedly inhibited the vasorelaxation to Ang-(1–7); also recorded: significantly attenuated"}, {"measurement": "Maximal vasorelaxation response to Ang-(1–7) in presence of HOE140", "setting": "[6]; HOE140 5 × 10^−8 M, PE 3 × 10^−7 M, mean ± SEM, N = 9, * P < 0.05 vs. control 42.4 ± 5.8", "result": "14.0 ± 7.0 ^* %"}, {"measurement": "Ang-(1–7)-induced relaxation (maximal response) in presence of HOE140", "setting": "[6]; HOE140 10^−6 M as printed in the abstract, PE 3 × 10^−7 M, mean ± SEM", "result": "14 ± 7", "unit": "%"}, {"measurement": "Effect on depressor effects of Ang-(1–7)", "setting": "SHR and WKY rats", "result": "sensitive"}]}
{"molecule": "[D-Alanine^7]-Ang-(1–7) [D-Ala^7-Ang-(1–7)]", "values": [{"measurement": "Action at AT2 and AT1 sites", "setting": "AT2 and AT1 sites", "result": "lack of actions at AT2 and AT1 sites"}, {"measurement": "Effect on NO stimulation by Ang-(1–7) or AVE0991", "setting": "bovine endothelial cells", "result": "blocked"}, {"measurement": "Effect on depressor actions of Ang-(1–7)", "setting": "older WKY rats", "result": "blocked the depressor actions of Ang-(1–7)"}, {"measurement": "Effect on increase in blood flow by Ang-(1–7)", "setting": "[7]", "result": "abolished"}, {"measurement": "Effect on Ang-(1–7)-dependent dilation of mesenteric vessels", "setting": "mesenteric vessels", "result": "sensitivity to DALA blockade"}, {"measurement": "Effect of receptor antagonist on Ang-(1–7)-induced vasorelaxation (in words)", "setting": "[4]", "result": "significantly inhibited; also recorded: essentially abolished"}, {"measurement": "Effect on Ang-(1–7)-dependent relaxation of aortic segments", "setting": "aortic segments", "result": "abolished"}, {"measurement": "Effect on the effects of [Ala^1]-Ang-(1–7)", "setting": "[5]", "result": "ineffective"}, {"measurement": "Effect on vasorelaxation of the mesenteric artery by Ang-(1–7)", "setting": "mesenteric artery", "result": "blocked"}, {"measurement": "Effect on Ang-(1–7)-induced vasodilation of renal afferent arterioles", "setting": "afferent arterioles", "result": "abolished"}]}
{"molecule": "[D-Proline^7]-Ang-(1–7) [D-Pro^7-Ang-(1–7)]", "values": [{"measurement": "Action at AT2 and AT1 sites", "setting": "AT2 and AT1 sites", "result": "lack of actions at AT2 and AT1 sites"}, {"measurement": "Effect of receptor antagonist on Ang-(1–7)-induced vasorelaxation (in words)", "setting": "[4]", "result": "significantly inhibited; also recorded: essentially abolished"}, {"measurement": "Effect on the effects of [Ala^1]-Ang-(1–7)", "setting": "[5]", "result": "abolished the effects of [Ala^1]-Ang-(1–7)"}]}
